Target: T1, human KDELR1 (Homo sapiens, UniProt P24390)
T1 construct: expressed in transfected cells; host or cells: COS-7
Experiment: ER retrieval assay, WT KDELR1-GFP
Format: cell-based
Details: COS-7 cells, WT human KDEL receptor-GFP with mScarlet ligand
Source text: To create KDELR1-GFP and KDELR2-GFP, the reading frames for Homo sapiens KDELR1 (Uniprot: P24390) and KDELR2 (Uniprot: P33947) were cloned into the pEF5/FRT low level mammalian expression vector with a C-terminal 20 amino acid linker made up of 5 copies of Gly-Ser-Ser-Ser followed by GFP. Specific point mutations were introduced using the Quickchange protocol (Stratagene) and are described in the key resources table and figures. To create the mScarlet-KDEL^sec ligand construct, mScarlet with an N-terminal hGH signal peptide and the 16 C-terminal residues of human BiP at its C-terminus, containing the KDEL signal, was cloned into the pcDNA3.1 vector. […] The Golgi marker protein TGN46 was detected by antibody (sheep anti-TGN46 AHP500G; AbD Serotec) and an Alexa 647 conjugated secondary anti-sheep secondary (A-21448, Invitrogen). In Figure 1d and e, endogenous KDELR was detected by antibody (mouse anti-KDELR ADI-VAA-PT048; Enzo Life Sciences) and Alexa 488 conjugated anti-mouse secondary antibody (A-21202, Invitrogen). For retrieval assays in other figures, KDELR-GFP fusion proteins were directly detected by fluorescence. The mScarlet-xDEL fusion proteins were directly detected by fluorescence. […] The fraction of KDEL receptor in the Golgi apparatus was calculated by dividing the Golgi signal by the total cell signal. […]

T1 sequence (P24390 whole entry): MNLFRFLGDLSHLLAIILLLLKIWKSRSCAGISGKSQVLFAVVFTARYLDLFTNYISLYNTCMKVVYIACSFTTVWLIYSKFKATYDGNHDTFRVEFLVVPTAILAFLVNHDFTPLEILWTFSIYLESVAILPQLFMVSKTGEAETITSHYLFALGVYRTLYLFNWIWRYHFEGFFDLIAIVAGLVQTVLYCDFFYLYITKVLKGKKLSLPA

ligand-induced receptor retrieval to the ER (in words): does not activate
Substance: ADEL [pcDNA3.1 hGHss-mScarlet-H. sapiens BiP639-654K651A (ADEL^SEC), secreted mScarlet fusion with human BiP C-terminus, ADEL signal]

— publication PMC8248988, “A signal capture and proofreading mechanism for the KDEL-receptor explains selectivity and dynamic range in ER retrieval” (eLife, 2021)
